Source: US10499637B2, “Compositions comprising flavonoid-containing extracts from plants of the genus citrus and/or isolated citrus flavonoids and specific cationic surface active agents, and said composition for use as an agent for treating infestations with head lice” (MEDA AB, priority 2009, dated 2019)

Experiments:
[1] = test system: Head lice, Pediculus humanus capitis; test: Test 1: in-vitro assay with head lice, test substances in basic solution; conditions: for Vitality of the lice after 120 min: dead / Vitality of the lice after 360 min: dead: number of dead lice of 5 incubated; for Vitality of the lice after 120 min: dead / Vitality of the lice after 360 min: dead / Vitality of the lice after 30 min: immobile / Vitality of the lice after 120 min: mobile / Vitality of the lice after 360 min: mobile: basic solution; for Vitality of the lice after 30 min: immobile: number of immobile lice of 5 incubated; for Vitality of the lice after 30 min: mobile / Vitality of the lice after 120 min: mobile / Vitality of the lice after 360 min: mobile: number of mobile lice of 5 incubated; for Vitality of the lice after 30 min: mobile: basic solution 10% lauryl glucoside, 5% glycerin, pH 6.0
Procedure: Head lice, Pediculus humanus capitis, were obtained by combing infested children from whom assent and consent from the parents had been obtained.
Lice were used for the experiments mostly immediately, but not later than 4 hours after removing from the head. Adult lice, mixed sexes, were fully immersed in the test solutions for 3 to 15 minutes, then thoroughly rinsed with plenty of water to remove any residuals of the test medication. Three replicates of 5 or 10 lice each, plus one control for each batch of lice, were used for any test formulation. The lice were transferred to dry filter paper and kept for observation for up to 24 hours.
The solutions were formulated by addition of the tests substances listed in Table 1 to a basic solution consisting of 10% lauryl glucoside, 5% glycerin and purified water ad 100% and adjusted to pH 6.0 with citric acid. In each test solution 5 lice were incubated, in the controls consisting of the basic solution without any additions 10 lice were incubated.
“Dead” means that neither movements of the legs nor of the intestine were observed.
At 30 min only mobile or immobile lice were observed, whereas dead lice were observed only at 120 and 360 min.

Aedes aegypti larvae = test: Naringin against Aedes aegypti larvae, experiments in applicant's laboratory; conditions: thousand fold higher concentration of naringin than in the literature, without acetonitrile in the assay
Source text: A putative insecticidal activity of naringin is of interest in the present context.

| SMILES | Vitality of the lice after 120 min: dead [1] | Vitality of the lice after 360 min: dead [1] | Vitality of the lice after 30 min: immobile [1] | Vitality of the lice after 30 min: mobile [1] | Vitality of the lice after 120 min: mobile [1] | Vitality of the lice after 360 min: mobile [1] | killing of Aedes aegypti larvae (Aedes aegypti larvae) |
| --- | --- | --- | --- | --- | --- | --- | --- |
| COc1ccc([C@@H]2CC(=O)c3c(O)cc(O)cc3O2)cc1O [1.0% hesperetin, (S)-2,3-dihydro-5,7-dihydroxy-2-(3-hydroxy-4-methoxyphenyl)-4H-1-benzopyran-4-one] | 0 | 0 | 0 | 5 | 5 | 5 |  |
| COc1ccc([C@@H]2CC(=O)c3c(O)cc(O[C@@H]4O[C@H](CO[C@@H]5O[C@@H](C)[C@H](O)[C@@H](O)[C@H]5O)[C@@H](O)[C@H](O)[C@H]4O)cc3O2)cc1O [1.0% hesperidin, (2S)-7-((6-O-(6-desoxy-α-L-mannopyranosyl)-β-D-glucopyranosyl)oxy)-2,3-dihydro-5-hydroxy-2-(3-hydroxy-4-methoxyphenyl)-4H-1-benzopyran-4-one] | 0 | 0 | 0 | 5 | 5 | 5 |  |
| O=C1C[C@@H](c2ccc(O)cc2)Oc2cc(O)cc(O)c21 [1.0% naringenin, (S)-2,3-dihydro-5,7-dihydroxy-2-(4-hydroxyphenyl)-4H-1-benzopyran-4-one] | 0 | 0 | 0 | 5 | 5 | 5 |  |
| C[C@@H]1O[C@@H](O[C@H]2[C@H](Oc3cc(O)c4c(c3)O[C@H](c3ccc(O)cc3)CC4=O)O[C@H](CO)[C@@H](O)[C@@H]2O)[C@H](O)[C@H](O)[C@H]1O [1.0% naringin, 7-[[2-O-(6-desoxy-α-L-mannopyra-nosyl)-β-D-glucopyranosyl]oxy]-2,3-dihydro-5-hydroxy-2-(4-hydroxy-phenyl)-4H-1-benzopyran-4-one] | 0 | 0 | 0 | 5 | 5 | 5 | did not kill |
| CCCCCCCCCCCCCCCCCCCCCC[N+](C)(C)C.[Cl-] [2.0% behentrim., behentrimonium chloride] | 0 | 0 | 0 | 5 | 5 | 5 |  |
| CCCCCCCCCCCCCCCC(=O)NCCC[N+](C)(C)C.[Cl-] [2.0% palmitamidopr., palmitamidopropyltrimonium chloride] | 0 | 1 | 0 | 5 | 5 | 4 |  |
